Experimental data: patent publication US10294234B2, “HIV inhibitor compounds” (priority 2017, dated 2019)
Where two headings read alike, the source gives them in different places.

Tests used:
[1] = system: HIV-1 (IIIB) in MT-4 cells; assay: MT-4 HIV assay; type: cell-based; conditions: Human immunodeficiency virus 1, MT4, 120 h
Outline: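 Antiviral activity was read by Cell Titer Glo after a 5-day, 37 °C culture of MT-4 cells pre-infected with a 1:250 dilution of HIV-1 (IIIB). Compounds were tested as threefold dilution series in complete RPMI. Controls were no drug, mock infection and 5 uM AZT.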

[2] = Outline: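 LC/MS/MS read-out of parent compound remaining; in vitro t1/2 converted to Clint. Incubation: 1 uM compound, 0.5 mg/mL dog/rat/human liver microsomes, NADPH-regenerating system, duplicate sets, time-points 2–65 minutes.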
[3] = human liver microsomes 0.5 mg/mL, 1 uM compound, NADPH
[4] = rat liver microsomes 0.5 mg/mL, 1 uM compound, NADPH
[5] = HIV-1 (IIIB), MT-4 cells, 5 days, Cell Titer Glo, read-out: EC50

Row | SMILES | EC50 [1] [nM] | Human Pred Cl. [2, 3] [L/H/kg] | Rat. Pred. Cl. [2, 4] [L/H/kg] | EC50 [1, 5] [nM] | Human Pred Cl. ([2]; human, microsomes) [L/H/kg] | Rat. Pred. Cl. ([2]; rat, microsomes) [L/H/kg] | Dog. Pred. Cl. ([2]; dog, microsomes) [L/H/kg]
1 | COC(=O)N[C@H](C(=O)N[C@@H](Cc1ccc(C#Cc2ccc(N3CCN(C4COC4)CC3)nc2)cc1)[C@@H](O)CN(Cc1c(F)cc(-c2ccc(F)cn2)cc1F)NC(=O)[C@@H](NC(=O)OC)C(C)(C)C(F)(F)F)C(C)(C)C(F)(F)F [Example 97, Methyl ((5S,8S,9S,14S)-11-(2,6-difluoro-4-(5-fluoropyridin-2-yl)benzyl)-16,16,16-trifluoro-9-hydroxy-15,15-dimethyl-8-(4-((6-(4-(oxetan-3-yl)piperazin-1-yl)pyridin-3-yl)ethynyl)benzyl)-3,6,13-trioxo-5-(1,1,1-trifluoro-2-methylpropan-2-yl)-2-oxa-4,7,11,12-tetraazahexadecan-14-yl)carbamate] | 4.54 | 0.46 | 0.31 | – | – | – | –
2 | COC(=O)N[C@H](C(=O)N[C@@H](Cc1ccc(C#Cc2ccc(N3CCN(C4COC4)CC3)nc2)cc1)[C@@H](O)CN(Cc1c(F)cc(-c2cc(F)ccn2)cc1F)NC(=O)[C@@H](NC(=O)OC)C(C)(C)C(F)(F)F)C(C)(C)C(F)(F)F [Example 98, Methyl ((5S,8S,9S,14S)-11-(2,6-difluoro-4-(4-fluoropyridin-2-yl)benzyl)-16,16,16-trifluoro-9-hydroxy-15,15-dimethyl-8-(4-((6-(4-(oxetan-3-yl)piperazin-1-yl)pyridin-3-yl)ethynyl)benzyl)-3,6,13-trioxo-5-(1,1,1-trifluoro-2-methylpropan-2-yl)-2-oxa-4,7,11,12-tetraazahexadecan-14-yl)carbamate] | – | 0.26 | 0.65 | 4.97 | – | – | –
3 | COC(=O)N[C@H](C(=O)N[C@@H](Cc1ccc(C#Cc2ccc(N3CC4CCC(C3)N4C3COC3)nc2)cc1)[C@@H](O)CN(Cc1c(F)cc(-c2ccc(C(F)F)cn2)cc1F)NC(=O)[C@@H](NC(=O)OC)C(C)(C)C(F)(F)F)C(C)(C)C(F)(F)F [Example 99, Methyl ((5S,8S,9S,14S)-11-(4-(5-(difluoromethyl)pyridin-2-yl)-2,6-difluorobenzyl)-16,16,16-trifluoro-9-hydroxy-15,15-dimethyl-8-(4-((6-(8-(oxetan-3-yl)-3,8-diazabicyclo [3.2.1]octan-3-yl)pyridin-3-yl)ethynyl)benzyl)-3,6,13-trioxo-5-(1,1,1-trifluoro-2-methylpropan-2-yl)-2-oxa-4,7,11,12-tetraazahexadecan-14-yl)carbamate] | – | – | – | 7.96 | <0.11 | 0.26 | –
4 | COC(=O)N[C@H](C(=O)N[C@@H](Cc1ccc(C#Cc2ccc(N3CC4CCC(C3)N4C3COC3)nc2)cc1)[C@@H](O)CN(Cc1c(F)cc(-c2ccc(F)cn2)cc1F)NC(=O)[C@@H](NC(=O)OC)C(C)(C)C(F)(F)F)C(C)(C)C(F)(F)F [Example 102, Methyl ((5S,8S,9S,14S)-11-(2,6-difluoro-4-(5-fluoropyridin-2-yl)benzyl)-16,16,16-trifluoro-9-hydroxy-15,15-dimethyl-8-(4-((6-(8-(oxetan-3-yl)-3,8-diazabicyclo [3.2.1]octan-3-yl)pyridin-3-yl)ethynyl)benzyl)-3,6,13-trioxo-5-(1,1,1-trifluoro-2-methylpropan-2-yl)-2-oxa-4,7,11,12-tetraazahexadecan-14-yl)carbamate] | – | – | – | 5.68 | 0.18 | <0.18 | –
5 | COC(=O)N[C@H](C(=O)N[C@@H](Cc1ccc(C#Cc2cnc(N3CCN(C4COC4)CC3)nc2)cc1)[C@@H](O)CN(Cc1c(F)cc(-c2cnn(C(F)F)c2)cc1F)NC(=O)[C@@H](NC(=O)OC)C(C)(C)C(F)(F)F)C(C)(C)C(F)(F)F [Example 103, Methyl ((5S,8S,9S,14S)-11-(4-(1-(difluoromethyl)-1H-pyrazol-4-yl)-2,6-difluorobenzyl)-16,16,16-trifluoro-9-hydroxy-15,15-dimethyl-8-(4-((2-(4-(oxetan-3-yl)piperazin-1-yl)pyrimidin-5-yl)ethynyl)benzyl)-3,6,13-trioxo-5-(1,1,1-trifluoro-2-methylpropan-2-yl)-2-oxa-4,7,11,12-tetraazahexadecan-14-yl)carbamate] | – | 0.16 | 0.32 | 4.84 | – | – | –
6 | COC(=O)N[C@H](C(=O)NN(Cc1c(F)cc(-c2ccc(F)cn2)cc1F)C[C@H](O)[C@H](Cc1ccc(C#Cc2ccc(N3CC4CCC(C3)N4C3COC3)nc2)cc1)NC(=O)[C@@H](NC(=O)OC)C(C)(C)C(F)(F)F)C(C)(C)C [Example 105, Methyl ((5S,8S,9S,14S)-11-(2,6-difluoro-4-(5-fluoropyridin-2-yl)benzyl)-9-hydroxy-15,15-dimethyl-8-(4-((6-(8-(oxetan-3-yl)-3,8-diazabicyclo [3.2.1]octan-3-yl)pyridin-3-yl)ethynyl)benzyl)-3,6,13-trioxo-5-(1,1,1-trifluoro-2-methylpropan-2-yl)-2-oxa-4,7,11,12-tetraazahexadecan-14-yl)carbamate] | – | – | – | 3.16 | 0.39 | – | –
7 | COC(=O)N[C@H](C(=O)NN(Cc1c(F)cc(-c2cnccn2)cc1F)C[C@H](O)[C@H](Cc1ccc(C#Cc2ccc(N3CC4CCC(C3)N4C3COC3)nc2)cc1)NC(=O)[C@@H](NC(=O)OC)C(C)(C)C(F)(F)F)C(C)(C)C [Example 107, Methyl ((5S,8S,9S,14S)-11-(2,6-difluoro-4-(pyrazin-2-yl)benzyl)-9-hydroxy-15,15-dimethyl-8-(4-((6-(8-(oxetan-3-yl)-3,8-diazabicyclo[3.2.1]octan-3-yl)pyridin-3-yl)ethynyl)benzyl)-3,6,13-trioxo-5-(1,1,1-trifluoro-2-methylpropan-2-yl)-2-oxa-4,7,11,12-tetraazahexadecan-14-yl)carbamate] | – | – | – | 2.23 | 1.1 | – | –
8 | COC(=O)N[C@H](C(=O)N[C@@H](Cc1ccc(C#Cc2ccc(N3CCN(C4CCOC4)CC3)nc2)cc1)[C@@H](O)CN(Cc1c(F)cc(-c2cnn(C(F)F)c2)cc1F)NC(=O)[C@@H](NC(=O)OC)C(C)(C)C(F)(F)F)C(C)(C)C(F)(F)F (stereo partly drawn) [Example 114, Methyl ((5S,8S,9S,14S)-11-(4-(1-(difluoromethyl)-1H-pyrazol-4-yl)-2,6-difluorobenzyl)-16,16,16-trifluoro-9-hydroxy-15,15-dimethyl-3,6,13-trioxo-8-(4-((6-(4-(tetrahydrofuran-3-yl)piperazin-1-yl)pyridin-3-yl)ethynyl)benzyl)-5-(1,1,1-trifluoro-2-methylpropan-2-yl)-2-oxa-4,7,11,12-tetraazahexadecan-14-yl)carbamate] | – | <0.11 | 0.28 | 5.1 | – | – | –
9 | COC(=O)N[C@H](C(=O)N[C@@H](Cc1ccc(C#Cc2ccc(N3CCN(C4CCOCC4)CC3)nc2)cc1)[C@@H](O)CN(Cc1c(F)cc(-c2cnn(C(F)F)c2)cc1F)NC(=O)[C@@H](NC(=O)OC)C(C)(C)C(F)(F)F)C(C)(C)C(F)(F)F [Example 115, Methyl ((5S,8S,9S,14S)-11-(4-(1-(difluoromethyl)-1H-pyrazol-4-yl)-2,6-difluorobenzyl)-16,16,16-trifluoro-9-hydroxy-15,15-dimethyl-3,6,13-trioxo-8-(4-((6-(4-(tetrahydro-2H-pyran-4-yl)piperazin-1-yl)pyridin-3-yl)ethynyl)benzyl)-5-(1,1,1-trifluoro-2-methylpropan-2-yl)-2-oxa-4,7,11,12-tetraazahexadecan-14-yl)carbamate] | – | 0.12 | <0.18 | 3.19 | – | – | –
10 | COC(=O)N[C@H](C(=O)N[C@@H](Cc1ccc(C#Cc2cnc(N3CC4CCC(C3)N4C3COC3)nc2)cc1)[C@@H](O)CN(Cc1c(F)cc(-c2cnc(C)nc2)cc1F)NC(=O)[C@@H](NC(=O)OC)C(C)(C)C(F)(F)F)C(C)(C)C(F)(F)F [Example 119, Methyl ((5S,8S,9S,14S)-11-(2,6-difluoro-4-(2-methylpyrimidin-5-yl)benzyl)-16,16,16-trifluoro-9-hydroxy-15,15-dimethyl-8-(4-((2-(8-(oxetan-3-yl)-3,8-diazabicyclo[3.2.1]octan-3-yl)pyrimidin-5-yl)ethynyl)benzyl)-3,6,13-trioxo-5-(1,1,1-trifluoro-2-methylpropan-2-yl)-2-oxa-4,7,11,12-tetraazahexadecan-14-yl)carbamate] | – | – | – | 3.66 | <0.11 | 0.27 | 1.35
11 | COC(=O)N[C@H](C(=O)N[C@@H](Cc1ccc(C#Cc2cnc(N3CC4CCC(C3)N4C3COC3)nc2)cc1)[C@@H](O)CN(Cc1c(F)cc(-c2cnc(N3CC4CCC(C3)N4C3COC3)nc2)cc1F)NC(=O)[C@@H](NC(=O)OC)C(C)(C)C(F)(F)F)C(C)(C)C(F)(F)F [Example 120, Methyl ((5S,8S,9S,14S)-11-(2,6-difluoro-4-(2-(8-(oxetan-3-yl)-3,8-diazabicyclo[3.2.1]octan-3-yl)pyrimidin-5-yl)benzyl)-16,16,16-trifluoro-9-hydroxy-15,15-dimethyl-8-(4-((2-(8-(oxetan-3-yl)-3,8-diazabicyclo[3.2.1]octan-3-yl)pyrimidin-5-yl)ethynyl)benzyl)-3,6,13-trioxo-5-(1,1,1-trifluoro-2-methylpropan-2-yl)-2-oxa-4,7,11,12-tetraazahexadecan-14-yl)carbamate] | – | – | – | 5.36 | 0.14 | 0.53 | –
